Test results as given in patent US20230024438A1, “INHIBITORS OF HIF-2ALPHA” (ARCUS BIOSCIENCES, INC., priority 2019, published 2023).

How the values were obtained:
HIF-2α = molecular target: T1, HIF-2α (Homo sapiens, UniProt Q99814); experiment: HIF-2α Luciferase Reporter Assay; type: cell-based; settings: HIF-Luc-786-0 cells, 20 hours incubation, luciferase activity; read-out: HIF-2α Luciferase Assay
T1 construct: endogenous in cells; host or cells: 786-O cells (ATCC CRL-1932) stably carrying the Cignal Lenti HIF Luc Reporter
T1 sequence (Q99814 whole entry): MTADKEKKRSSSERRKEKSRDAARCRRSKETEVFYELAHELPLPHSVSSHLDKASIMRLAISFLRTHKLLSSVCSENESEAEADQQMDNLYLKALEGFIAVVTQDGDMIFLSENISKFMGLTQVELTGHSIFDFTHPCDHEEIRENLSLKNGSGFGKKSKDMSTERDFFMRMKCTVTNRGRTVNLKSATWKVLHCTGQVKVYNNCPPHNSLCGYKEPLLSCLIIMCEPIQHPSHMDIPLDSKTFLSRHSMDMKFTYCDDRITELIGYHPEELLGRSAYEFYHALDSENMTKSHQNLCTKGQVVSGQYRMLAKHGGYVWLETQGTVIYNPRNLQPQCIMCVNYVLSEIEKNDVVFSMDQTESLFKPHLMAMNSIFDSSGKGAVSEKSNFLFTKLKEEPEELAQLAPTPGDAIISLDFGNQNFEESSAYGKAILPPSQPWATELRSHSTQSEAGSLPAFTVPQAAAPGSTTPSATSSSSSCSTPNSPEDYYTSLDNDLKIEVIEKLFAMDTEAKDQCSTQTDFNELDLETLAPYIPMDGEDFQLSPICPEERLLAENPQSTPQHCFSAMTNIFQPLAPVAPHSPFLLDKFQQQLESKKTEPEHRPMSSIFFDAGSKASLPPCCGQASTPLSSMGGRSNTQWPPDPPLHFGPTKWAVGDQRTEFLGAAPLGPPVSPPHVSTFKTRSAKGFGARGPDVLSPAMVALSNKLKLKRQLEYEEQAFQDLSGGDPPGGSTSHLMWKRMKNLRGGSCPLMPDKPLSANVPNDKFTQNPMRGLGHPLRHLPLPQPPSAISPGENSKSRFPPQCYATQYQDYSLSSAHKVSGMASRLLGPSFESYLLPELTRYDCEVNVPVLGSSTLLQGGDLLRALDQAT
Procedure: Stable cell lines were generated by transducing 786-O cells (ATCC, CRL-1932) with Cignal Lenti HIF Luc Reporter lentivirus (CLS-007L, Qiagen) according to the manufacturer's guidelines. In brief, 0.3×10^6 786-0 cells were transduced with lentivirus at a Multiplicity of Infection (MOI) of 25 for 24 hours. After transduction, cells were replenished with fresh RPMI 1640 Medium (Cat. No. 11875085, Thermo Fisher,) supplemented with 10% FBS (Cat. No. A3160502, Gibco), 2 mM GlutaMax (Cat. No. 35050-061, Invitrogen) and 100 units of penicillin and 100 μg of streptomycin/mL (Cat. No 15070063, Thermo Fisher) for another 24 hours. Antibiotic selection was performed in cell media containing 4 μg/mL of Puromycin. After 7 days of antibiotic selection, stable pools of surviving cells were expanded and used in a luciferase reporter assay.
On day one, 20 uL of HIF-Luc-786-0 cells in OptiMem (Cat. No. 31985088, Thermo Fisher) were seeded into each well of a 384 well white opaque plate (Corning 3570) and incubated at 37° C. and 5% CO2. Twenty microliters of 2× test compounds in OptiMem were added to cells after 4 hours of incubation. Final assay conditions comprised 20,000 cells per well in 1% DMSO with test compound concentrations ranging from 50 uM to 0 uM. After 20 hours incubation at 37° C. and 5% CO2, luciferase activity was determined using ONE-Glo Luciferase Assay Reagent (E6110, Promega) following the manufacture's recommended procedure. Briefly, 40 uL of ONE-Glo luciferase reagents were added to each well and luciferase signals were measured using an Envision 2102 Multilabel Reader. Percentage maximum activity in each test well was calculated based on DMSO (maximum activity) and no cell control wells (baseline activity). The IC50 values of the test compounds were determined from compound dose response curves fitted using a standard four parameter fit equation.

[1] = molecular target: T2, Histidine tagged HIF-2α protein containing PAS-B domain (240-350) (Homo sapiens, UniProt Q99814); experiment: HIF-2α Scintillation Proximity Assay (SPA); type: binding; settings: 50 nM HIF-2α protein, 25 nM radiolabeled tracer; read-out: HIF-2α Scintillation Proximity Assay
T2 construct: Histidine tagged HIF-2α protein containing PAS-B domain (240-350) was prepared and purified in house; made in house
T2 sequence (Q99814 240-350): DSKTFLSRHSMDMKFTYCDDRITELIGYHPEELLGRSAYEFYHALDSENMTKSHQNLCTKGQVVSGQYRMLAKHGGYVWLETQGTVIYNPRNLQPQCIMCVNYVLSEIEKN
Procedure: Tritium labeled compound N-(3-chlorophenyl)-4-nitro-2,1,3-benzoxadiazol-5-amine was obtained from American Radiolabeled Chemicals Inc. and copper chelate PVT SPA beads were from PerkinElmer (Cat #RPNQ0095). Histidine tagged HIF-2α protein containing PAS-B domain (240-350) was prepared and purified in house.
Compounds solubilized in DMSO were dispensed into a white 384-well polystyrene non-binding flat clear bottom plate (Greiner Bio-One, Cat #781903) using an HP D300 dispenser. Ten microliters of HIS-tagged HIF-2α protein in buffer (25 mM Tris-HCl, pH 7.4, 150 mM NaCl, 0.15% BSA and 0.001% Tween 20) was added to the compound wells and allowed to incubate for 1 hour at room temperature. Ten microliters of SPA bead mix were added to the wells and incubated for an additional 45 minutes, followed by 10 ul of ^3H-tracer solution. Final assay conditions comprised 50 nM HIF-2α protein, 25 nM radiolabeled tracer and 3 ug beads per well with compounds in 2% DMSO. The plate was read using a MicroBeta Microplate Counter (PerkinElmer) for luminescence detection. The IC50 values of the test compounds were determined from compound dose response curves fitted using a standard four parameter fit equation and are reported in Table 1.

Row | Compound | IC50 (HIF-2α) | IC50 [1]
1 | CS(=O)(=O)c1ccc(Nc2cc(F)cc(C#N)c2)c2c(F)n[nH]c12 [Example 2, 3-Fluoro-5-[(3-fluoro-7-methanesulfonyl-1H-indazol-4-yl)amino]benzonitrile] | 1 to 10 µM | > 10 µM
2 | O=S(=O)(c1ccc(NCc2cc(Cl)cc(Cl)c2)c2cn[nH]c12)C(F)(F)F [Example 56, N-[(3,5-dichlorophenyl)methyl]-7-(trifluoromethylsulfonyl)-1H-indazol-4-amine] | > 10 µM | > 10 µM
3 | N#Cc1cc(F)cc(Oc2ccc(S(=O)(=O)C(F)F)c3[nH]ncc23)c1 [Example 12, 5-[7-(Difluoromethylsulfonyl)-1H-indazol-4-yloxy]-3-fluorobenzonitrile] | 1 to 10 µM | 1 to 10 µM
4 | O=S(=O)(c1ccc(NCc2ccccc2F)c2cn[nH]c12)C(F)(F)F [Example 50, N-[(2-Fluorophenyl)methyl]-7-(trifluoromethylsulfonyl)-1H-indazol-4-amine] | > 10 µM | > 10 µM
5 | N#Cc1ccc(Oc2ccc(S(=O)(=O)C(F)(F)F)c3[nH]ncc23)cc1 [Example 19, p[7-(Trifluoromethylsulfonyl)-1H-indazol-4-yloxy]benzonitrile] | 1 to 10 µM | > 10 µM
6 | O=S(=O)(c1ccc(Oc2cccc(Cl)c2)c2cn[nH]c12)C(F)(F)F [Example 41, 4-(3-Chlorophenoxy)-7-(trifluoromethylsulfonyl)-1H-indazole] | 1 to 10 µM | < 1 µM
7 | CS(=O)(=O)c1ccc(Oc2cc(F)cc(Cl)c2)c2c(Cl)n[nH]c12 [Example 9, 3-Chloro-4-(3-chloro-5-fluorophenoxy)-7-methanesulfonyl-1H-indazole] | 1 to 10 µM | > 10 µM
8 | O=S(=O)(c1ccc(NCc2ccc(F)cc2C(F)(F)F)c2cn[nH]c12)C(F)(F)F [Example 55, N-[[4-fluoro-2-(trifluoromethyl)phenyl]methyl]-7-(trifluoromethylsulfonyl)-1H-indazol-4-amine] | > 10 µM | > 10 µM
9 | Cc1cc(C#N)cc(Oc2ccc(S(=O)(=O)C(F)(F)F)c3[nH]ncc23)c1 [Example 28, 3-Methyl-5-[[7-(trifluoromethylsulfonyl)-1H-indazol-4-yl]oxy]benzonitrile] | 1 to 10 µM | 1 to 10 µM
10 | O=S(=O)(c1ccc(Oc2cc(Cl)cc(OC(F)(F)F)c2)c2cn[nH]c12)C(F)(F)F [Example 29, 4-[3-Chloro-5-(trifluoromethoxy)phenoxy]-7-(trifluoromethylsulfonyl)-1H-indazole] | > 10 µM | > 10 µM
11 | N#Cc1cc(Oc2ccc(S(=O)(=O)C(F)(F)F)c3[nH]ncc23)ccc1Cl [Example 35, 2-Chloro-5-[[7-(trifluoromethylsulfonyl)-1H-indazol-4-yl]oxy]benzonitrile] | > 10 µM | 1 to 10 µM
12 | O=S(=O)(c1ccc(NCc2ccc(F)cc2)c2cn[nH]c12)C(F)(F)F [Example 52, N-[(4-fluorophenyl)methyl]-7-(trifluoromethylsulfonyl)-1H-indazol-4-amine] | > 10 µM | > 10 µM

Results, then the molecule that gave them:

Row | IC50 (HIF-2α) | IC50 [1] | Compound
13 | 1 to 10 µM | < 1 µM | O=S(=O)(c1ccc(Oc2cc(F)cc(Cl)c2)c2cn[nH]c12)C(F)(F)F [Example 40, 4-(3-Chloro-5-fluorophenoxy)-7-(trifluoromethylsulfonyl)-1H-indazole]
14 | > 10 µM | > 10 µM | O=S(=O)(c1ccc(NCc2ccccc2)c2cn[nH]c12)C(F)(F)F [Example 51, N-benzyl-7-(trifluoromethylsulfonyl)-1H-indazol-4-amine]
15 | > 10 µM | 1 to 10 µM | N#Cc1cc(F)cc(Oc2c(F)cc(S(=O)(=O)C(F)(F)F)c3[nH]ncc23)c1 [Example 64, 3-Fluoro-5-[(5-fluoro-7-trifluoromethanesulfonyl-1H-indazol-4-yl)oxy]benzonitrile]
16 | 1 to 10 µM | > 10 µM | N#Cc1cc(F)cc(Oc2ccc(S(=O)(=O)C(F)F)c3[nH]nc(I)c23)c1 [Example 13, 5-[7-(Difluoromethylsulfonyl)-3-iodo-1H-indazol-4-yloxy]-3-fluorobenzonitrile]
17 | 1 to 10 µM | 1 to 10 µM | Fc1cc(F)cc(Oc2ccc(C(F)(F)F)c3[nH]ncc23)c1 [Example 26, 4-(3,5-Difluorophenoxy)-7-(trifluoromethyl)-1H-indazole]
18 | 1 to 10 µM | 1 to 10 µM | O=S(=O)(c1ccc(Oc2cncc(Cl)c2)c2cn[nH]c12)C(F)(F)F [Example 23, 4-[(5-Chloropyridin-3-yl)oxy]-7-trifluoromethanesulfonyl-1H-indazole]
19 | 1 to 10 µM | 1 to 10 µM | N#Cc1cncc(Oc2ccc(S(=O)(=O)C(F)(F)F)c3[nH]ncc23)c1 [Example 24, 5-[(7-Trifluoromethanesulfonyl-1H-indazol-4-yl)oxy]pyridine-3-carbonitrile]
20 | > 10 µM | > 10 µM | N#Cc1ccc(Oc2ccc(S(=O)(=O)C(F)(F)F)c3[nH]ncc23)cc1F [Example 34, 2-Fluoro-4-[[7-(trifluoromethylsulfonyl)-1H-indazol-4-yl]oxy]benzonitrile]
21 | 1 to 10 µM | > 10 µM | CS(=O)(=O)c1ccc(Oc2cc(F)cc(C#N)c2)c2c(Cl)n[nH]c12 [Example 8, 3-[(3-Chloro-7-methanesulfonyl-1H-indazol-4-yl)oxy]-5-fluorobenzonitrile]
22 | < 1 µM | < 1 µM | O=S(=O)(c1ccc(Oc2cc(F)cc(F)c2)c2cn[nH]c12)C(F)(F)F [Example 25, 4-(3,5-Difluorophenoxy)-7-trifluoromethanesulfonyl-1H-indazole]
23 | 1 to 10 µM | > 10 µM | O=S(=O)(c1ccc(Oc2ccccc2)c2cn[nH]c12)C(F)(F)F [Example 16, 4-Phenoxy-7-(trifluoromethylsulfonyl)-1H-indazole]
24 | 1 to 10 µM | 1 to 10 µM | O=S(=O)(c1ccc(Oc2cccc(F)c2)c2cn[nH]c12)C(F)(F)F [Example 31, 4-(3-Fluorophenoxy)-7-(trifluoromethylsulfonyl)-1H-indazole]
25 | 1 to 10 µM | 1 to 10 µM | N#Cc1cc(F)cc(Oc2cnc(C(F)(F)F)c3[nH]ncc23)c1 [Example 68, 3-Fluoro-5-{[7-(trifluoromethyl)-1H-pyrazolo[3,4-c]pyridin-4-yl]oxy}benzonitrile]
26 | 1 to 10 µM | 1 to 10 µM | Fc1cc(Cl)cc(Oc2cnc(C(F)(F)F)c3[nH]ncc23)c1 [Example 69, 4-(3-Chloro-5-fluorophenoxy)-7-(trifluoromethyl)-1H-pyrazolo[3,4-c]pyridine]
27 | > 10 µM | < 1 µM | N#Cc1cccc(Oc2ccc(S(=O)(=O)C(F)(F)F)c3[nH]nc(Cl)c23)c1 [Example 62, m-[3-Chloro-7-(trifluoromethylsulfonyl)-1H-indazol-4-yloxy]benzonitrile]
28 | 1 to 10 µM | > 10 µM | O=S(=O)(c1ccc(Cc2cccc(Cl)c2)c2cn[nH]c12)C(F)(F)F [Example 59, 4-[(3-Chlorophenyl)methyl]-7-trifluoromethanesulfonyl-1H-indazole]
29 | > 10 µM | > 10 µM | O=S(=O)(c1ccc(NCc2ccc(F)cc2F)c2cn[nH]c12)C(F)(F)F [Example 53, N-[(2,4-difluorophenyl)methyl]-7-(trifluoromethylsulfonyl)-1H-indazol-4-amine]
30 | 1 to 10 µM | > 10 µM | CS(=O)(=O)c1ccc(Oc2cc(F)cc(C#N)c2)c2c(CO)n[nH]c12 [Example 11, 3-Fluoro-5-{[3-(hydroxymethyl)-7-methanesulfonyl-1H-indazol-4-yl]oxy}benzonitrile]
